Measured values published in ChEMBL document CHEMBL1926585, “Triterpenoids with rare carbon skeletons from Salvia hydrangea: antiprotozoal activity and absolute configurations” (J Nat Prod, 2011).

Columns and labels:
[1] = Selectivity index, ratio of IC50 for rat L6 cells to IC50 for Plasmodium falciparum K1; assay type: toxicity, cell-based; conditions: L6 cells versus Plasmodium falciparum K1, read-out: Ratio IC50
[2] = tested on: Trypanosoma brucei rhodesiense; assay: Antitrypanosomal activity against Trypanosoma brucei rhodesiense STIB900; assay type: functional, organism-based
[3] = tested on: Plasmodium falciparum; assay: Antiplasmodial activity against Plasmodium falciparum K1; assay type: functional, organism-based
[4] = tested on: L6; assay: Cytotoxicity against rat L6 cells; assay type: cell-based
[5] = Selectivity index, ratio of IC50 for rat L6 cells to IC50 for Trypanosoma brucei rhodesiense STIB900; assay type: toxicity, cell-based; conditions: L6 cells versus Trypanosoma brucei rhodesiense STIB900, read-out: Ratio IC50

For `CC1=CC(=O)[C@@]23CC[C@@H]4C(C)(C)CCC[C@@]45C[C@]24[C@@H]1C[C@H]1C(C)(C)OC(=C(C(C)C)C3=O)[C@]14O5` [PEROVSKONE B], the selectivity ratio [1] was 69.6, the IC50 [2] was 15.9 µM and the IC50 [3] was 0.18 µM. It also gave an IC50 [4] of 5.77 µM and a selectivity ratio [5] of 0.78.
`C=CC1=C[C@@H]2[C@@H]3[C@]4(C(C)C)C(=O)[C@]5(CC[C@H]6C(C)(C)CCC[C@]67C[C@]25[C@@](OC[C@@]3(C)O)(O7)C4=O)C1` [SALVADIONE C] showed a selectivity ratio [1] of 86.6, an IC50 [2] of 4.33 µM and an IC50 [3] of 1.43 µM. The IC50 [4] was over 90 µM and the selectivity ratio [5] was 43.2.
